Patent US20110206623A1, “NOVEL DIPOLAR IONIC COMPOUNDS COMPRISING FORMULATIONS AND THE USE THEREOF” (EVONIK GOLDSCHMIDT GMBH, priority 2007, published 2011)

How the values were obtained:
[1] = system: skin model (reconstructed human epidermis) damaged with SDS; experiment: LDH release after damaging the cells with SDS, O/W cream; format: cell-based
Experimental: (§1) In order to be able to characterize the skin care properties of the compounds 2.1 to 2.8, various in vitro tests were carried out on skin models (reconstructed human epidermis, company: SkinEthic).
The LDH concentration was determined with a commercially available test kit (LDH test kit, Roche Diagnostics, Mannheim, Germany).
Sodium dodecyl sulphate (SDS) is known for attacking the cell membrane and for resulting in increased LDH release. The experiment described below should investigate to what extent compound 2.1 can protect the cells after damaging with SDS.
The skin model was damaged with SDS for 40 min. Subsequently, the test formulation, an O/W cream with 1 or 4% of compound 2.1, was applied. The LDH release was measured 24 h and 48 h after application of the test formulation.

IL-1α = experiment: Anti-inflammatory action of an O/W cream with compound 2.1 (IL-1α after SDS damage); format: cell-based, human; settings: O/W cream with 1% and 4% of compound 2.1 applied after SDS damage
Experimental: as §1
IL-1α is a […] which plays a central role in inflammatory reactions in the body. Sodium lauryl sulphate (SDS) is a skin-irritating surfactant which can give rise to irritant contact dermatitis in man, is used as model irritant in proband studies and, inter alia, induces the release of IL-1α. The IL-1α concentration was determined with a commercially available test kit (human IL-1α immunoassay, R&D Systems GmbH, Wiesbaden, Germany).
It should be investigated whether the anti-inflammatory effect of the short-chain zwitterionic compounds also appears when used from a cosmetic formulation. For this, skin models were damaged with SDS. Subsequently, the test formulation with 1% and 4% of compound 2.1 was applied. The IL-1α concentration was determined 24 and 48 h after application.

[2] = system: skin model (reconstructed human epidermis) damaged with SDS; experiment: XTT test with an O/W cream with compound 2.1 after SDS damage; format: cell-based; settings: O/W cream with compound 2.1 applied after 0.25% SDS for 40 min; 24 h incubation
Experimental: as §1
The XTT test is based on the ability of the cells to reduce the dye XTT, which can be detected photometrically. This reaction is catalyzed by mitochondrial succinate dehydrogenase and requires NAD(P)H, which can only be formed by metabolically active cells. To sum up, the XTT test describes the viability of the cells.
The XTT test was carried out with a commercially available test kit and took place according to the manufacturer's instructions (XTT Test, Roche Diagnostics, Mannheim, Germany).
The skin model was first damaged with 0.25% SDS for 40 min. Subsequently, the test formulations were applied. After incubating for a time of 24 h, the viability of the cells was determined using the XTT test.
Test formulation: see Example 3.2.

[3] = Water retention capacity on an IMS film; settings: 5.0% in test formulation 3.7; 4 hours at 21-22° C. and 72% R.H.; in comparison with the vehicle
Description: The determination of the water retention capacity of active substances using the IMS film represents a simple screening test by which the moisturizing properties of active substances can be very satisfactorily investigated. The measurement is based on the following principle: The IMS film is a membrane which is covered with peptides, lipids and polymers and represents a greatly simplified skin model. The active substance interacts out of the formulation with the film. Combining with water takes place and thus the evaporation of the water is prevented or made more difficult.
Implementation: • 1. The weight of the IMS membrane is determined (W1). • 2. The test formulation is applied, the film is again weighed (W2) and the film is subsequently incubated at 21-22° C. and 72% R.H. for 4 hours. • 3. After the 4 hours have passed, the film is again weighed (W3). • 4. The water retention capacity of the formulation (WR) is calculated as follows: […]

[4] = system: skin moisture (stratum corneum), forearms of probands; experiment: In vivo moisturizer properties, corneometer, 2 hours after application; set-up: species or system human
Experimental: The skin moisture is determined in normal fashion using a corneometer.
With the corneometer principle, the skin moisture of the “outer layer” of the epidermis (stratum corneum) is determined by means of a capacity measurement. This principle is based on the fact that the dielectric constants of water and other substances differ. An appropriately shaped measuring capacitor reacts with different changes in capacity on the samples introduced into its sensing volume, which changes in capacity are recorded and evaluated fully automatically by the device. The active probe coated with special glass is pressed against the place on the skin to be measured and, after 1 second, the value measured by the corneometer, thus the degree of moisture on the skin surface, appears on the display
For the experiments described here, use is made of a corneometer CM 825 from Courage & Khazaka. The skin moisture was measured before and 2 hours after application of the test formulations. For this, 4 test panels were each time highlighted on the forearms of 14 probands, on which the different test formulations were applied. Before each measurement, the probands had to spend at least 15 min in a climate-controlled chamber (21-22° C., 55% R.H.).
The difference in the corneometer values before and after application of the test formulations was calculated. […]

[5] = system: skin moisture, inner side of a forearm of probands; experiment: Long-term moisturizing effect, corneometer, two-week study; format: in vivo, human; settings: 2% in test formulation 3.9, twice daily for 2 weeks; compared with vehicle; 12 probands
Experimental: In order to investigate the long-term effect of the moisturizing properties of compound 2.1, a study lasting two weeks was carried out with 12 probands. The probands received 2 formulations, one with 2% of compound 2.1 and one without active substance. They had to apply each of these formulations on the inner side of a forearm twice daily. The moisture content was measured before beginning to use and also after 2 weeks.
The moisture content was determined using a corneometer CM 825 (Courage & Khazaka). Before each measurement, the probands had to stay in a climate-controlled chamber (21-22° C., 55% R.H.) for at least 15 min. The difference in the corneometer units with respect to the starting value was calculated each time (ΔCU).

[6] = system: skin roughness, inner side of a forearm of probands; experiment: Skin roughness by tape stripping and Bradford test; format: in vivo, human; settings: 2% formulation twice daily
Description: The skin roughness can be quantified in a simple way by means of tape stripping. The rougher the skin surface, e.g. because the skin lipid barrier is damaged, the weaker the binding of the skin cells. In some cases, with very rough skin, this can be seen with the naked eye. The outermost corneocytes are removed by tape stripping. In this connection, the more corneocytes stuck to the tape, the rougher the skin. The corneocytes are subsequently determined quantitatively using a commercially available Bradford test. This is based on the following principle: the triphenylmethane dye Coomassie Brilliant Blue G-250 (CBBG) forms complexes in acid solution both with the cationic and the nonpolar hydrophobic side chains of the proteins. […] Since the extinction coefficient of the dye/protein complex is in addition very much higher than that of the free dye, the increase in the absorption at 595 nm through the formation of the complex can be measured photometrically with high sensitivity against the free dye reagent and is a measure of the protein concentration of the solution.
The study was carried out with 12 probands who received two test formulations, one with 2% compound 2.1 and one without. […] Tape strips were taken and analyzed before the beginning of the application and also after 2 weeks and after 4 weeks. […]

Compound: C[N+](C)(CCCNC=O)CC(=O)[O-] [Compound 2.1]
- Effectiveness on LDH release with 4% compared with 1% ([1]; O/W cream with 4% vs 1% of compound 2.1 after SDS damage): no clear increase in the effectiveness
- Reduction of the SDS-induced increase in LDH release (total LDH after 24 and 48 h) ([1]; O/W cream with compound 2.1 applied after 40 min SDS damage, compared with vehicle): clearly intensified
- SDS-induced increase in IL-1α (overall concentration after 24 and 48 h) (IL-1α): more strongly reduced in a concentration-dependent fashion
- Viability of the skin cells (XTT) after damaging with SDS [2]: more than redoubled
- Water retention capacity (WR) [3]: particularly strongly pronounced
- Effectiveness on skin moisture with increasing concentration of use ([4]; 1.0% vs 4.0% in test formulation 3.8): clearly increased with increasing concentration of use
- Skin moisture, increase in corneometer units (ΔCU) ([4]; 1.0/4.0% in test formulation 3.8, 14 probands): very clearly increased
- Moisture content (ΔCU) after 2 weeks [5]: further enhanced
- Skin roughness (amount of protein on tape strips, based on the vehicle), two weeks ([6]; after using for two weeks, compared with the vehicle): clear reduction
- Skin roughness (amount of protein on tape strips, based on the vehicle), further use ([6]; further use (after 4 weeks)): even more pronounced
